Data: article PMC10570359, “Dietary supplementation of cystinotic mice by lysine inhibits the megalin pathway and decreases kidney cystine content” (Scientific Reports, 2023)
Like-named read-outs stand apart in the source and are kept apart here.

How the values were obtained:
[1] = biological target: porcine megalin (Sus scrofa, UniProt C0HL13); test: Surface plasmon resonance: competition for lysozyme binding to chip-immobilized megalin; settings: 10 µg/ml lysozyme in 0 to 100 mM amino-acid
Description: To directly address whether supra-physiological concentrations of dibasic amino-acids (dAAs) can interfere with binding of protein ligands to megalin, we used surface plasmon resonance. Sensor chips were derivatized with porcine megalin at high density. […] After flushing, chips were incubated with 10 µg/ml of three analytes: the megalin chaperone, RAP (receptor-associated protein), as positive control (not shown), or two physiological megalin ligands: transcobalamine:cobalamine complexes (TC:B12; Fig. 1; sensorgrams shown at Supplemental Fig. 1a) or lysozyme (Supplemental Fig. 1b), diluted in 0 to 100 mM of the same amino-acids in buffer. […] The supraphysiological range for effective competition in vitro defined the necessary increment in urinary concentration from dietary supplementation for significant competition in vivo.
Surface plasmon resonance (SPR) analysis of the binding to chip-immobilized megalin of receptor-associated protein (RAP), transcobalamine:cobalamine complex (TC:B12) and lysozyme was carried out using a Biacore T200 instrument (Uppsala, Sweden). The sensor chips (type CM5) were activated with a 1:1 mixture of 0.2 M N-ethyl-N′-(3-dimethylaminopropyl) carbodiimide and 0.05 M N-hydroxysuccinimide in H2O. Porcine megalin[49] was immobilized on the chip in 10 mM sodium acetate, pH 4.0, and the remaining binding sites were blocked with 1 M ethanolamine, pH 8.5. The SPR signal generated from immobilized megalin were obtained with a density of 4.5 fmol protein/mm^2.
Human RAP was produced as recombinant protein in E. coli[50] and used to validate the sensor chip. TC was purified and complexed with B12 as described (TC/B12)[50],[51]. Human recombinant lysozyme was purchased from Sigma-Aldrich (expressed in rice, # L1667). Sensorgrams were generated using each of these three ligands at 10 µg/ml in a running buffer consisting of 10 mM Hepes, 150 mM NaCl, 4 mM CaCl2 and 0.05% Tween 20, pH 7.4. The flow cells were regenerated with 1 M ethanolamine pH 9.0. Analyte testing was performed as a dual injection starting with running buffer supplemented with the defined concentrations of amino acids followed by injection of analyte in the same solution. The pH of all buffers was adjusted after amino acids addition. All binding experiments were made as at least independent triplicate of technical duplicates and data were analyzed using the Biacore T200 evaluation software version 3.1.

[2] = test system: megalin; test: Confocal imaging of megalin localization in kidney proximal tubular cells of WT mice; type: in vivo; settings: WT female mice, two weeks diet, kidney cortex
Description: Glom, glomerulus (no detectable megalin signal).

[3] = Urinary and serum amino-acid concentration by mass spectrometry in Ctns KO mice; type: in vivo; settings: for Urinary alanine / Urinary cystine / Urinary glycine: Ctns KO mice at 8 months of age, 24-h urine, mean ± SEM; for increase of cystinuria: vs control diet; for concentration at 2 months: n = 4
Description: Body weight was recorded before entering the metabolic cages. […] Creatinine clearance was normalized by mouse body weight.
Quantitative analysis of underivatized amino-acids in serum and urine samples was performed using the Amino Acids LC–MS/MS analysis Kit Jasem®. […] Equipment was controlled and data were analyzed using MassHunter Workstation (Agilent Technologies). The assay was validated for selectivity, specificity, linearity and limit of quantification, accuracy and precision, matrix effects and recovery, and stability.

[4] = test system: NaPi-IIa and SGLT-2; test: NaPi-IIa and SGLT-2 mRNA levels in Ctns KO mice kidneys; type: in vivo; settings: Ctns KO mice kidneys at 8 months of age, fold-change viz control diet
Description: At cellular level, we assessed PT cell death linked to compensatory renewal, by measuring Ki-67 immunolabelling abundance, a validated proliferation index (Fig. 6a)[22]. […] At subcellular level, NaPi-IIa and SGLT-2 mRNA levels were measured as apical differentiation markers (Fig. 6b,c).
Figure 6 Effects of diets on selected PTC indices in Ctns KO mice kidneys at 8 months of age. (a) Proliferative events in PTCs were identified by Ki-67 immunolabelling in confocal images and scored over random fields to cumulative areas of 0.96 mm^2. […] For representative confocal images and proliferation events in all cortical compartments, see Supplemental Fig. 6. (b,c) Apical differentiation state. Expression levels of NaPi-IIa and SGLT-2 as representative apical PT transporters were calculated as ratios to the housekeeping gene, HPRT1, and presented as fold-change viz control diet.

[5] = test system: kidney proximal tubular cells; test: Triple fluorescence of lysosomes and endogenous albumin in PTCs of Ctns KO mice (2-to-6 months diet); type: in vivo; settings: Ctns KO female mice, diet from 2-to-6 months-of-age
Description: For in vivo endocytic tracing in PTCs, Texas Red-ovalbumin (300 µg, Invitrogen #O23021) was injected intravenously at 20 min before sacrifice. For immunofluorescence, antigen retrieval was promoted in citrate buffer, pH 6, at 95 °C for 20 min using a Lab Vision Pretreatment Module™ (Thermo Scientific). Tissue was permeabilized with PBS/0.3% Triton-X100 for 5 min, then for one further hour with 10% bovine serum albumin (BSA)/3% milk to block non-specific sites. Sections were incubated overnight at 4 °C with the following primary reagents in blocking buffer: sheep anti-megalin (1/800, kindly provided by Drs P. Verroust and R. Kozyraki, INSERM U968, Paris, F-75012, FR), rat anti-LAMP-1 (1/100; #1D4B, Hybridoma Bank), mouse anti-ezrin (1/100, #MS-661-P1, ThermoScientific), mouse anti-Ki67 (1/250, #556003, BD-Pharmingen), rabbit anti-human albumin (1/1000; Dako #A0001). After washing, sections were further incubated with the appropriate AlexaFluor-secondary antibodies for 1 h at room temperature in 10% BSA/0.3% Triton-X100 and mounted with Faramount aqueous mounting medium (Dako). Sections were imaged on a spinning disk confocal microscope using EC Plan-NeoFluar 40X/1.3 or 100x/1.4 Oil DIC objective (Cell Observer Spinning Disk; Zeiss). Proliferative events in kidney cortex were quantified as described. Alternatively, whole kidney images were acquired using a Pannoramic 250 Flash III microscope (3DHistech). Histological PAS staining and quantification of the frequency of swan-neck lesions were performed as described. Sirius Red staining of paraffine sections and morphometry in total sagittal kidney sections after conversion to red fluorescence were performed as described[53],[54]. […]
Supplemental Figure 3. […]
not detected within PT lysosomes of dAA-treated mice under identical immunolabeling /imaging conditions, indicating impaired endocytosis and/or […] degradation upon dbAA supplementation. […]

[6] = Ctns KO mice, daily urine collections
[7] = female, C57BL/6, mouse, in vivo, 2 months

Sequence of porcine megalin (C0HL13 26-4652): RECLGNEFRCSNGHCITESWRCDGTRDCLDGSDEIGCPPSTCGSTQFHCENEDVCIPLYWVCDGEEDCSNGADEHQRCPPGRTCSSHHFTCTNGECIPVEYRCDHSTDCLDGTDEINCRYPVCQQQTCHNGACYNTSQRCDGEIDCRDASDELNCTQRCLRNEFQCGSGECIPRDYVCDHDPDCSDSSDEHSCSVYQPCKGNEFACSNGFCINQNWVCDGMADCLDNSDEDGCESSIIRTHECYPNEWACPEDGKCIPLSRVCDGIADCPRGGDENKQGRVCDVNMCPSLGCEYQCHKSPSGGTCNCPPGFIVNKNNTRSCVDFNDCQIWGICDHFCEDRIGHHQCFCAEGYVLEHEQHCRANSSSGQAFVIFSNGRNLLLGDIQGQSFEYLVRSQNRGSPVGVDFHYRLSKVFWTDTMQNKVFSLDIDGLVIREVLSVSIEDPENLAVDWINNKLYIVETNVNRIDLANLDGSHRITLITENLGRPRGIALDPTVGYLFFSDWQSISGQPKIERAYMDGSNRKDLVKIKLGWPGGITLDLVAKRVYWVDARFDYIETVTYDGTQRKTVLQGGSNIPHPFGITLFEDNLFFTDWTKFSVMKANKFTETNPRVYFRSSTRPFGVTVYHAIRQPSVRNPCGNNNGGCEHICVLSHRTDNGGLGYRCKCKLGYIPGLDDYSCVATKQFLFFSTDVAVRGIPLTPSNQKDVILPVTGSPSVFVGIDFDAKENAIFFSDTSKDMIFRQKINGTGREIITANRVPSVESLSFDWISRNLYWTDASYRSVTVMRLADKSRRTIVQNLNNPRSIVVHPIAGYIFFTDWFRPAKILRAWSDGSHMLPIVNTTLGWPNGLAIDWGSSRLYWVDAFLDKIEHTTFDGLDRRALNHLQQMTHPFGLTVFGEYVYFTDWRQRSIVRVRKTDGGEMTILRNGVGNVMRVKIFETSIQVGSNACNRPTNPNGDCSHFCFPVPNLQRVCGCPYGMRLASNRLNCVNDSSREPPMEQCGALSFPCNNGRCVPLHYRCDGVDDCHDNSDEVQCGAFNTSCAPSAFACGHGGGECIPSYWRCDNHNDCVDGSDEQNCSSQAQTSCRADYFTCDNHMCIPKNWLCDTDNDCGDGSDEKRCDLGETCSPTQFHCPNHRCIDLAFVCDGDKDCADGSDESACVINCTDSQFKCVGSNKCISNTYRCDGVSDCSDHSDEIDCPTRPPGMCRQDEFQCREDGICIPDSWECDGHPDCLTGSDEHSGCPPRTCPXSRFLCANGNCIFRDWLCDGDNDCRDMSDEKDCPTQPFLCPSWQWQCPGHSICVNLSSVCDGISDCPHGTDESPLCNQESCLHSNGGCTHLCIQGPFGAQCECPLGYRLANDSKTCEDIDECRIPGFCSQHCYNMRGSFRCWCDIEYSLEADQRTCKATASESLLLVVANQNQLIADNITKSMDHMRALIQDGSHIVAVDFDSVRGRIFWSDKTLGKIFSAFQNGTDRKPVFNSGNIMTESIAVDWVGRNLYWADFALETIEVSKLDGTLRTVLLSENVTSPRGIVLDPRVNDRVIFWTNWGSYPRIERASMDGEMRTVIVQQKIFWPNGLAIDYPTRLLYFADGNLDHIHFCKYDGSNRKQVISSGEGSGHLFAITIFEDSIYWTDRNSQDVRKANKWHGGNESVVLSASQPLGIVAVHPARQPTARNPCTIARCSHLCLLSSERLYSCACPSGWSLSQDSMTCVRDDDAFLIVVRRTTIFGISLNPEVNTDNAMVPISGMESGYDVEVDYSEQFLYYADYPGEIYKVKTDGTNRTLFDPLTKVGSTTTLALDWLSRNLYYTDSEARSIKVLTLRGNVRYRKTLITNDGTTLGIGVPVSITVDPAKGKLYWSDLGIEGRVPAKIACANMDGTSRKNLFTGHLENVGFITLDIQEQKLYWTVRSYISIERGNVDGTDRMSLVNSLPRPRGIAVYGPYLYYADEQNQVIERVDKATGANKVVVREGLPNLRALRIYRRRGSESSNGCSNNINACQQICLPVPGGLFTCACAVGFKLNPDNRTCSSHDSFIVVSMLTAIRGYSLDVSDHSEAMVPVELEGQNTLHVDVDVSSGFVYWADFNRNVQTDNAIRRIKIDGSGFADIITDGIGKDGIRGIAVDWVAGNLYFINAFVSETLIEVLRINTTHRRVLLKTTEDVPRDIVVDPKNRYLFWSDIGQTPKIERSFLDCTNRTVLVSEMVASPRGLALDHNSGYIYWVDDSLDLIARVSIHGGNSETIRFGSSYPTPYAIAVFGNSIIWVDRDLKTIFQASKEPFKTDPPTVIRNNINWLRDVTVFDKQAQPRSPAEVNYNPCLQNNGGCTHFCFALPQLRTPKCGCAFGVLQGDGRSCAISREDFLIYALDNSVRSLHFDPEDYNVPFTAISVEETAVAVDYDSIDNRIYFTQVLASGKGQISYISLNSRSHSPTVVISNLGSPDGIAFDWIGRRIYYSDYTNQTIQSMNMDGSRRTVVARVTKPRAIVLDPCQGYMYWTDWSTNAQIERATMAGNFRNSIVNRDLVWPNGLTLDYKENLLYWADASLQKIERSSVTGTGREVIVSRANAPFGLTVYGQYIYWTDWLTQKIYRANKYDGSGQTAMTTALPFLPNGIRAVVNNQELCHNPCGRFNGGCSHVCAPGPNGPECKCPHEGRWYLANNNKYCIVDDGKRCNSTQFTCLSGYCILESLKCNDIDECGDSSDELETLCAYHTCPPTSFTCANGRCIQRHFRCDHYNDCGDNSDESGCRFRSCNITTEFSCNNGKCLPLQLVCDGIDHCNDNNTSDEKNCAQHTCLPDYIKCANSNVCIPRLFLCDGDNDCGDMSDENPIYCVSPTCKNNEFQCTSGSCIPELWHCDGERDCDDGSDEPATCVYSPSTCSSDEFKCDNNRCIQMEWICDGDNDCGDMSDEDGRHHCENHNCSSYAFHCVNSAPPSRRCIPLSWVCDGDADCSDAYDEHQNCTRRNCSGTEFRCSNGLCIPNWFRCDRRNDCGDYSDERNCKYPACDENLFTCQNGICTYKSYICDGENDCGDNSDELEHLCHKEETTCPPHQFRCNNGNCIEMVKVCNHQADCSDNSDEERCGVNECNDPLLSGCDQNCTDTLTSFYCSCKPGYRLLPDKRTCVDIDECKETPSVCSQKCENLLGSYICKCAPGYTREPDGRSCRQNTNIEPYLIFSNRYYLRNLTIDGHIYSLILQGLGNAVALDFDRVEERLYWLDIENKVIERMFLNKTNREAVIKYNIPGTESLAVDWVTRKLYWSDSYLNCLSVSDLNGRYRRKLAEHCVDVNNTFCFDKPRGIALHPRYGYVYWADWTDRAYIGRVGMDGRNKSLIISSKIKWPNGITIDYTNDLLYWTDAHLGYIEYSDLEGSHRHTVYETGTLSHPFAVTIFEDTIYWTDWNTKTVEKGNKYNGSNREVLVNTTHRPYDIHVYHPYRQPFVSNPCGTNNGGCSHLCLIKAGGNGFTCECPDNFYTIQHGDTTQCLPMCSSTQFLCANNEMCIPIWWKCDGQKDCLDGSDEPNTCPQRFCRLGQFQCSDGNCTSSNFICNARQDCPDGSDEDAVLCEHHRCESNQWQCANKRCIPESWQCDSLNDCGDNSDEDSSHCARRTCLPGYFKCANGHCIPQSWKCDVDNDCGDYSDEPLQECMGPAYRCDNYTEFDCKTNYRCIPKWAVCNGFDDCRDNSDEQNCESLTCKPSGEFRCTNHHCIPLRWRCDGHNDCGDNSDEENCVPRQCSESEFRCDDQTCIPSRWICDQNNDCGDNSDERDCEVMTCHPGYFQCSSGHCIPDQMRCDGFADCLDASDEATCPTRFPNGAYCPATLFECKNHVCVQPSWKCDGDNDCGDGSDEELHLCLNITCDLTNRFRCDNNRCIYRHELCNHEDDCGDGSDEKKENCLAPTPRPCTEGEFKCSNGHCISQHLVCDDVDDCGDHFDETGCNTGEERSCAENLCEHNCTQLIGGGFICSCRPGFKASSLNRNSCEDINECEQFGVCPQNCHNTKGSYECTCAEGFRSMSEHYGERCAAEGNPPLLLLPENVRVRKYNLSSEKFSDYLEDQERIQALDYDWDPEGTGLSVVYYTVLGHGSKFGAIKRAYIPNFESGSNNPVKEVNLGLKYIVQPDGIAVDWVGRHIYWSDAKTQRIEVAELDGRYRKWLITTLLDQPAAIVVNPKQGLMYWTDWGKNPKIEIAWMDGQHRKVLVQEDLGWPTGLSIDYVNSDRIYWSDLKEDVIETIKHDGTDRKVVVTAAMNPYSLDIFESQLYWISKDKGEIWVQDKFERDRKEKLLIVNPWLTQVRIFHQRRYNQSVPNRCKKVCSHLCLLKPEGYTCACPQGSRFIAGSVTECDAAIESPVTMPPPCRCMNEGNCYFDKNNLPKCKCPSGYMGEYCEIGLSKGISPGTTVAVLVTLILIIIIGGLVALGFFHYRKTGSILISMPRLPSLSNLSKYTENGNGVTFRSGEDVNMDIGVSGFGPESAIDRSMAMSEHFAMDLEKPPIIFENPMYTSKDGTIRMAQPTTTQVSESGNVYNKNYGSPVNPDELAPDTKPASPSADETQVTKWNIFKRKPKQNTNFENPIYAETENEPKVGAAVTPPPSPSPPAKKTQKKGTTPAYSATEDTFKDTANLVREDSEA

Compound	effect on megalin binding of lysozyme [1]	subcellular localization of megalin in PTCs [2]	Urinary alanine [3] [mM/M creatinine]	Urinary cystine [3] [mM/M creatinine]	Urinary glycine [3] [mM/M creatinine]	urinary arginine concentration reached [3, 6]	increase of cystinuria ([3]; Ctns KO mice)	increase of argininuria [3, 7] [fold]	concentration at 2 months ([3]; female, C57BL/6, mouse, serum, oral, 7.6 g/kg/day, Ctns KO mice, read-out: serum arginine) [µM]	NaPi-IIa and SGLT-2 mRNA levels (apical differentiation markers) [4]	lysosomal enlargement/deformation in PTCs [5]	urinary lysine concentration reached [3, 6]	increase of lysinuria [3, 7] [fold]	concentration at 2 months ([3]; female, C57BL/6, mouse, in vivo, 6.5 g/kg/day, Ctns KO mice, read-out: serum lysine) [µM]	endogenous albumin signal in PTC lysosomes [5]
N=C(N)NCCC[C@H](N)C(=O)O [5x-L-arginine, L-arginine]	concentration-dependent decrease	no relocation	712.5 ± 216.9	146.6 ± 43.7	963.7 ± 218.1	~ 1 mM	twofold	33	137 ± 35	failed to protect	prevent lysosomal enlargement and distorsion				
NCCCC[C@H](N)C(=O)O [5x-L-lysine, L-lysine]	concentration-dependent decrease	no relocation	639.6 ± 279.6	504.5 ± 61.2	881.0 ± 265.9		8 fold	25		significant yet limited benefit	prevent lysosomal enlargement and distorsion	~ 25 mM	210	581 ± 15.5	disappearance of albumin signal
